In US8034811B2, “Hydroxamic acid esters and pharmaceutical use thereof” (Leo Pharma A/S, priority 2003, dated 2011):

molecular target: T1, human intracellular domain of KDR (VEGF Receptor-2) (Homo sapiens, UniProt P35968); experiment: In vitro KDR kinase assay; assay type: biochemical; conditions: IC50 as molar concentration; GST-KDR-cyt, substrate phospholipase Cγ, ATP 100 μM, 30 min room temperature, time-resolved fluorometry
T1 construct: A fusion protein containing the intracellular domain (amino acids 793 to 1357) of the KDR and N-terminally tagged to GST; made in house; host or cells: Sf9 insect cells (baculovirus, pDEST20) for GST-KDR-cyt; E. coli BL21 (pGEX-4T-1) for GST-PLCγ
Method: The intracellular domain of the KDR receptor was used in the in vitro KDR assay. This domain contains the tyrosine kinase domain of KDR, and when expressed in Sf9 cells, this domain is constitutively active i.e. the kinase domain is phosphorylated on tyrosine residues.
The compounds to be tested were dissolved in DMSO at 10 mM, stored at −20° C. and protected from light. The maximum concentration of DMSO in the in vitro assay was 0.1%. Control samples received the same concentration of solvent as the samples treated with the test compounds.
For the kinase assays, black 96 wells MaxiSorp microtiter plates were coated by an overnight incubation with 100 μl/well of a 2.5 μg/ml solution of phospholipase Cγ in TBS buffer (40 mM Tris-HCl, pH 7.4, 20 mM Mg(C2H3O2)2, 0.02% NaN3) at 4° C. The plates were washed 3 times with TBS buffer containing 0.1% Tween-20, and the residual binding sites were masked by incubation with 1% BSA in TBS buffer containing 0.1% Tween-20 for 1 h. The plates were washed again and the test compounds were added at final concentrations up to 10 μM, together with ATP at the final concentration of 100 μM in 50 μl TBS buffer/well. Then, 50 μl of the human intracellular domain of KDR (VEGF Receptor-2) finally diluted 3000-3500 fold were added and were incubated for 30 min at room temperature. The plates were washed and 100 μl of the Europium labelled PY-20 anti-phosphotyrosine antibody (Wallac, FIN) were incubated in each well at the concentration of approximately 114 ng/ml for 2 h. Then, the plates were washed and 100 μl of enhancer solution (Wallac, FIN) were incubated in each well for 5 min in the dark. The plates were read in a Victor 1420 multilabel counter, using a Europium protocol for time-resolved fluorometry (Wallac, FIN): excitation 340 nm, emission 615 nm, sample pulse cycle 400 μs. Fluorescence was measured for 400 μs between flashes after a delay time of 400 μs. The background measured in the absence of enzyme was subtracted from all samples. The molar concentrations that inhibited 50% of the maximal enzymatic activity (IC50) were calculated from the dose-response curve, by fitting a straight line between the two concentrations immediately above and below the 50% inhibition point (i.e. by solving the equation y=a+bx).

T1 sequence (P35968 794-1356 limits assumed): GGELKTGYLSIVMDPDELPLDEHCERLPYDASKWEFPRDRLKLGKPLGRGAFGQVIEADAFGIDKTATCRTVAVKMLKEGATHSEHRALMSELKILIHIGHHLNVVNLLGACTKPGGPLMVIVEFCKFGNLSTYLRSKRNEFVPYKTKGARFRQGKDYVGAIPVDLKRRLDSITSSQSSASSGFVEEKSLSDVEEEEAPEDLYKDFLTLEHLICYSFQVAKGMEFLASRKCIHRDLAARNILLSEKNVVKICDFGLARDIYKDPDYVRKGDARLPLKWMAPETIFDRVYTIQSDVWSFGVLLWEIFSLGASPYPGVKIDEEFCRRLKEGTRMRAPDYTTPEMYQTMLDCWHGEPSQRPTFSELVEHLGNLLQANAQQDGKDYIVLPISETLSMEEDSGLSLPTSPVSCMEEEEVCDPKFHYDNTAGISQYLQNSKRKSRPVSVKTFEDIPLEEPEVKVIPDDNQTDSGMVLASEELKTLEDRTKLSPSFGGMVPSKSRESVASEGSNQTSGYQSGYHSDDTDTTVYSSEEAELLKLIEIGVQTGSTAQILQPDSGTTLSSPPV

| Structure (SMILES) | IC50 [nM] |
| --- | --- |
| Cc1cc(F)cc(C)c1CONC(=O)c1ccccc1NCc1ccncc1 [Compound 38, N-(4-Fluoro-2,6-dimethyl-benzyloxy)-2-[(pyridin-4-ylmethyl)-amino]-benzamide] | 10 |
| O=C(NOCc1ccc(CO)cc1)c1ccccc1NCc1ccncc1 [Compound 58, N-(4-Hydroxymethyl-benzyloxy)-2-[(pyridin-4-ylmethyl)-amino]-benzamide] | 63.1 |
| N#Cc1ccc(CONC(=O)c2ccccc2NCc2ccncc2)c(I)c1 [Compound 80, N-(4-Cyano-2-iodo-benzyloxy)-2-[(pyridin-4-ylmethyl)-amino]-benzamide] | 39.8 |
| O=C(NOCc1ccc(F)cc1Cl)c1ccccc1NCc1ccncc1 [Compound 24, N-(2-Chloro-4-fluoro-benzyloxy)-2-[(pyridin-4-ylmethyl)-amino]-benzamide] | 20 |
| Cc1ccc(CONC(=O)c2ccccc2NCc2ccncc2)c(F)c1F [Compound 40, N-(2,3-Difluoro-4-methyl-benzyloxy)-2-[(pyridin-4-ylmethyl)-amino]-benzamide] | 10 |
| Cc1ccc(F)cc1CONC(=O)c1ccccc1NCc1ccncc1 [Compound 42, N-(5-Fluoro-2-methyl-benzyloxy)-2-[(pyridin-4-ylmethyl)-amino]-benzamide] | 10 |
| O=C(NOCc1ccc(Cl)cc1Cl)c1ccccc1NCc1ccncc1 [Compound 14, N-(2,4-Dichloro-benzyloxy)-2-[(pyridin-4-ylmethyl)-amino]-benzamide] | 6.31 |
| O=C(NOCc1cccc(OC(F)(F)F)c1)c1ccccc1NCc1ccncc1 [Compound 67, 2-[(Pyridin-4-ylmethyl)-amino]-N-(3-trifluoromethoxy-benzyloxy)-benzamide] | 50.1 |
| O=C(NOCc1ccc(C(F)(F)F)cc1)c1ccccc1NCc1ccncc1 [Compound 6, N2-[(Pyridin-4-ylmethyl)-amino]-N-(4-trifluoromethyl-benzyloxy)-benzamide] | 63.1 |
| N#CCc1ccccc1CONC(=O)c1ccccc1NCc1ccncc1 [Compound 56, N-(2-Cyanomethyl-benzyloxy)-2-[(pyridin-4-ylmethyl)-amino]-benzamide] | 50.1 |
| Cc1ccc(CONC(=O)c2ccccc2NCc2ccncc2)cc1F [Compound 41, N-(3-Fluoro-4-methyl-benzyloxy)-2-[(pyridin-4-ylmethyl)-amino]-benzamide] | 20 |
| N#Cc1ccc(CONC(=O)c2ccccc2NCc2ccncc2)cc1 [Compound 27, N-(4-cyano-benzyloxy)-2-[(pyridin-4-ylmethyl)-amino]-benzamide] | 12.6 |
| O=C(NOCc1cccc(C(F)(F)F)c1)c1ccccc1NCc1ccncc1 [Compound 4, 2-[(Pyridin-4-ylmethyl)-amino]-N-(3-trifluoromethyl-benzyloxy)-benzamide] | 200 |
| Nc1ccccc1CONC(=O)c1ccccc1NCc1ccncc1 [Compound 85, N-(2-Amino-benzyloxy)-2-[(pyridin-4-ylmethyl)-amino]-benzamide] | 50.1 |
| O=C(NOCc1ccc(Cl)cc1)c1ccccc1NCc1ccncc1 [Compound 10, N-(4-Chloro-benzyloxy)-2-[(pyridin-4-ylmethyl)-amino]-benzamide] | 50.1 |
| O=C(NOCc1cccc2ccccc12)c1ccccc1NCc1ccncc1 [Compound 100, N-(Naphthalen-1-ylmethoxy)-2-[(pyridin-4-ylmethyl)-amino]-benzamide] | 63.1 |
| O=C(NOCc1cc(Cl)cc(Cl)c1)c1ccccc1NCc1ccncc1 [Compound 17, N-(3,5-Dichloro-benzyloxy)-2-[(pyridin-4-ylmethyl)-amino]-benzamide] | 63.1 |
| N#Cc1ccc(CONC(=O)c2ccccc2NCc2ccncc2)c2ccccc12 [Compound 82, N-(4-Cyano-naphthalen-1-ylmethoxy)-2-[(pyridin-4-ylmethyl)-amino]-benzamide] | 15.8 |
| O=C(NOCc1ccccc1OC(F)(F)F)c1ccccc1NCc1ccncc1 [Compound 66, 2-[(Pyridin-4-ylmethyl)-amino]-N-(2-trifluoromethoxy-benzyloxy)-benzamide] | 63.1 |

Continued, values first:

| IC50 [nM] | Structure (SMILES) |
| --- | --- |
| 79.4 | N#Cc1ccc(CONC(=O)c2ccccc2NCc2ccc3c(c2)CCO3)cc1 [Compound 196, N-(4-Cyano-benzyloxy)-2-[(2,3-dihydro-benzofuran-5-ylmethyl)-amino]-benzamide] |
| 79.4 | O=C(NOCc1ccc(F)cc1)c1ccccc1NCc1ccnc(N2CCOCC2)c1 [Compound 207, N-(4-Fluoro-benzyloxy)-2-[(2-morpholin-4-yl-pyridin-4-ylmethyl)-amino]-benzamide] |
| 63.1 | O=C(NOCc1ccc(F)cc1)c1ccccc1NCc1ccnc(Br)c1 [Compound 204, 2-[(2-Bromo-pyridin-4-ylmethyl)-amino]-N-(4-fluoro-benzyloxy)benzamide] |
| 100 | O=C(NOCC1CC1)c1ccccc1NCc1ccncc1 [Compound 114, N-Cyclopropylmethoxy-2-[(pyridin-4-ylmethyl)-amino]-benzamide] |
| 63.1 | COc1ccc(CNc2ccccc2C(=O)NOCc2ccc(C#N)cc2OC)cn1 [compound 235] |
| 63.1 | CCOC(=O)CNC(=O)Nc1cc(CNc2ccccc2C(=O)NOCC2CCCC2)ccn1 [compound 215] |
| 39.8 | CC(C)(C)CONC(=O)c1ccccc1NCc1ccncc1 [Compound 116, N-(2,2-Dimethyl-propoxy)-2-[(pyridin-4-ylmethyl)-amino]-benzamide] |
| 7.94 | CNC(=O)Nc1cc(CNc2ccccc2C(=O)NOCc2ccc(C#N)cc2)ccn1 [Compound 210, N-(4-Cyano-benzyloxy)-2-{[2-(3-methyl-ureido)-pyridin-4-ylmethyl]-amino}-benzamide] |
| 20 | CNC(=O)Nc1cc(CNc2ccccc2C(=O)NOCc2ccc(C#N)cc2OC)ccn1 [Compound 211, N-(4-Cyano-2-methoxy-benzyloxy)-2-{[2-(3-methyl-ureido)-pyridin-4-ylmethyl]-amino}-benzamide] |
| 20 | Cc1nc(CONC(=O)c2ccccc2NCc2ccnc3ccccc23)cs1 [compound 232] |
| 39.8 | O=C(NOCCC1CC1)c1ccccc1NCc1ccncc1 [Compound 125, N-(2-Cyclopropyl-ethoxy)-2-[(pyridin-4-ylmethyl)-amino]-benzamide] |
| 63.1 | O=C(NOCC1CCOCC1)c1ccccc1NCc1ccnc2ccccc12 [compound 234] |
| 50.1 | O=C(NOCC1CCOCC1)c1ccccc1NCc1ccncc1 [Compound 141, 2-[(Pyridin-4-ylmethyl)-amino]-N-(tetrahydro-pyran-4-ylmethoxy)-benzamide] |
| 100 | Cc1nc(CONC(=O)c2ccc(F)cc2NCc2ccncc2)cs1 [Compound 143, 4-Fluoro-N-(2-methyl-thiazol-4-ylmethoxy)-2-[(pyridin-4-ylmethyl)amino]-benzamide] |
| 50.1 | O=C(NOCc1ccc(F)cc1)c1ccccc1NCc1ccc2occc2c1 [Compound 199, 2-[(Benzofuran-5-ylmethyl)-amino]-N-(4-fluoro-benzyloxy)-benzamide] |
| 50.1 | N#Cc1ccc(CONC(=O)c2cccnc2NCc2ccncc2)c(Cl)c1 [Compound 157, N-(2-Chloro-4-cyano-benzyloxy)-2-[(pyridin-4-ylmethyl)-amino]-nicotinamide] |
| 7.94 | N#Cc1ccc(CONC(=O)c2ccccc2NCc2ccnc(NC(=O)NCCO)c2)cc1 [compound 220] |
| 79.4 | O=C(NCCCO)c1cc(CNc2ccccc2C(=O)NOCC2CCCC2)ccc1F [Compound 188, 5-[(2-Cyclopentylmethoxycarbamoyl-phenylamino)-methyl]-2-fluoro-N-(3-hydroxypropyl)-benzamide] |
| 7.94 | O=C(NCCO)Nc1cc(CNc2ccccc2C(=O)NOCC2CCCC2)ccn1 [compound 221] |
| 63.1 | O=C(NOCc1ccccc1Br)c1cccnc1NCc1ccncc1 [Compound 161, N-(2-Bromo-benzyloxy)-2-[(pyridin-4-ylmethyl)-amino]-nicotinamide] |
| 39.8 | O=C(NOCC1CCCCO1)c1ccccc1NCc1ccncc1 (centres unmarked) [Compound 142, 2-[(Pyridin-4-ylmethyl)-amino]-N-(tetrahydro-pyran-2-ylmethoxy)-benzamide] |
| 39.8 | CO[C@@H]1CCC[C@H](CONC(=O)c2ccccc2NCc2ccncc2)C1 (stereo in doubt) [Compound 131, N-(3-Methoxy-cyclohexylmethoxy)-2-[(pyridin-4-ylmethyl)-amino]-benzamide] |
